In ChEMBL document CHEMBL3885861, “Open TG-GATES”:

Species: Rattus norvegicus
Experiment: Open TG-GATES - Regimen: Single
Format: toxicity, organism-based, Sprague-Dawley
Design: regimen Single, gender Male, age 6 weeks
Conditions: in vivo, po, 30 mg/kg, route gavage, dose level High; for APTT / Bas / Eos / Fbg / Hb / Ht / Lym / MCH / MCHC / MCV / Mono / Neu / PT / Plat / RBC / Ret / WBC: tissue Blood; for KIDNEY_L / KIDNEY_R / KIDNEY_TOTAL: tissue Kidney; for LIVER: tissue Liver; for A/G / ALP / ALT / AST / BUN / CRE / Ca / Cl / DBIL / GLC / IP / K / LDH / Na / PL / RALB / TBIL / TC / TG / TP / gamma-GTP: tissue Plasma

With `C=CCO` [ALLYL ALCOHOL] the TERMINAL_BW (3 h) was 222.7 g, the APTT (3 h) was 19.6 s and the Bas (3 h) was 0%. For the same compound, the Eos (3 h) was 1%, the Fbg (3 h) was 211.6 mg/dL and the Hb (3 h) was 13.4 g/dL. It also gave a Ht (3 h) of 38.7%, a Lym (3 h) of 75% and an MCH (3 h) of 21.7 pg. It also gave an MCHC (3 h) of 34.8%, an MCV (3 h) of 62.3 fL and a Mono (3 h) of 3%. The Neu (3 h) was 20.4%, the PT (3 h) was 12.4 s and the Plat (3 h) was 134.6 x10_4/uL. It also gave an RBC (3 h) of 622.4 x10_4/ul, a Ret (3 h) of 7.4% and a WBC (3 h) of 88.9 x10_2/uL. It also gave a KIDNEY_L (3 h) of 1 g, a KIDNEY_R (3 h) of 1 g and a KIDNEY_TOTAL (3 h) of 1.9 g. The LIVER (3 h) was 10.3 g, the A/G (3 h) was 1.5 and the ALP (3 h) was 976.6 IU/L. It also gave an ALT (3 h) of 42.8 IU/L, an AST (3 h) of 77.2 IU/L and a BUN (3 h) of 12 mg/dL. The CRE (3 h) was 0.3 mg/dL, the Ca (3 h) was 11 mg/dL and the Cl (3 h) was 101.6 meq/L. The DBIL (3 h) was 0.5 mg/dL, the GLC (3 h) was 202.2 mg/dL and the IP (3 h) was 8.9 mg/dL. It also gave a K (3 h) of 3.7 meq/L, an LDH (3 h) of 233.4 IU/L and a Na (3 h) of 140.8 meq/L. For the same compound, the PL (3 h) was 177 mg/dL, the RALB (3 h) was 3.4 g/dL and the TBIL (3 h) was 0.6 mg/dL. For the same compound, the TC (3 h) was 80 mg/dL, the TG (3 h) was 255 mg/dL and the TP (3 h) was 5.6 g/dL. For the same compound, the gamma-GTP (3 h) was 1.2 IU/L, the TERMINAL_BW (6 h) was 220.4 g and the APTT (6 h) was 19.3 s. It also gave a Bas (6 h) of 0%, an Eos (6 h) of 1% and a Fbg (6 h) of 217 mg/dL. For the same compound, the Hb (6 h) was 13.5 g/dL, the Ht (6 h) was 39.5% and the Lym (6 h) was 67%. It also gave an MCH (6 h) of 20.5 pg, an MCHC (6 h) of 34% and an MCV (6 h) of 60.2 fL. For the same compound, the Mono (6 h) was 5.2%, the Neu (6 h) was 25.8% and the PT (6 h) was 12.4 s. The Plat (6 h) was 129.3 x10_4/uL, the RBC (6 h) was 658 x10_4/ul and the Ret (6 h) was 7.1%. It also gave a WBC (6 h) of 127.5 x10_2/uL, a KIDNEY_L (6 h) of 0.9 g and a KIDNEY_R (6 h) of 0.9 g. The KIDNEY_TOTAL (6 h) was 1.9 g, the LIVER (6 h) was 9.4 g and the A/G (6 h) was 1.4. For the same compound, the ALP (6 h) was 1023.4 IU/L, the ALT (6 h) was 101.2 IU/L and the AST (6 h) was 168.4 IU/L. The BUN (6 h) was 10.2 mg/dL, the CRE (6 h) was 0.4 mg/dL and the Ca (6 h) was 10.5 mg/dL. For the same compound, the Cl (6 h) was 102.4 meq/L, the DBIL (6 h) was 0.1 mg/dL and the GLC (6 h) was 198.4 mg/dL. It also gave an IP (6 h) of 9.2 mg/dL, a K (6 h) of 3.8 meq/L and an LDH (6 h) of 564.8 IU/L. For the same compound, the Na (6 h) was 140.6 meq/L, the PL (6 h) was 168 mg/dL and the RALB (6 h) was 3.1 g/dL. It also gave a TBIL (6 h) of 0.2 mg/dL, a TC (6 h) of 85.4 mg/dL and a TG (6 h) of 97.6 mg/dL. For the same compound, the TP (6 h) was 5.3 g/dL, the gamma-GTP (6 h) was 2 IU/L and the TERMINAL_BW (9 h) was 216.4 g. The APTT (9 h) was 18.7 s, the Bas (9 h) was 0% and the Eos (9 h) was 1%. For the same compound, the Fbg (9 h) was 222.2 mg/dL, the Hb (9 h) was 13.2 g/dL and the Ht (9 h) was 38.8%. For the same compound, the Lym (9 h) was 66.8%, the MCH (9 h) was 21.3 pg and the MCHC (9 h) was 34.1%. It also gave an MCV (9 h) of 62.5 fL, a Mono (9 h) of 3.2% and a Neu (9 h) of 28.6%. For the same compound, the PT (9 h) was 12.4 s, the Plat (9 h) was 129.2 x10_4/uL and the RBC (9 h) was 620.6 x10_4/ul. It also gave a Ret (9 h) of 7.4%, a WBC (9 h) of 104.8 x10_2/uL and a KIDNEY_L (9 h) of 1 g. For the same compound, the KIDNEY_R (9 h) was 1 g, the KIDNEY_TOTAL (9 h) was 2 g and the LIVER (9 h) was 9.3 g. For the same compound, the A/G (9 h) was 1.5, the ALP (9 h) was 1007 IU/L and the ALT (9 h) was 30.6 IU/L. The AST (9 h) was 64.2 IU/L, the BUN (9 h) was 11.4 mg/dL and the CRE (9 h) was 0.4 mg/dL. It also gave a Ca (9 h) of 10.3 mg/dL, a Cl (9 h) of 101.4 meq/L and a DBIL (9 h) of 0.086 mg/dL. The GLC (9 h) was 206.8 mg/dL, the IP (9 h) was 10.5 mg/dL and the K (9 h) was 4.2 meq/L. For the same compound, the LDH (9 h) was 200 IU/L, the Na (9 h) was 139 meq/L and the PL (9 h) was 141.2 mg/dL. It also gave an RALB (9 h) of 3.1 g/dL, a TBIL (9 h) of 0.1 mg/dL and a TC (9 h) of 73 mg/dL. It also gave a TG (9 h) of 63.8 mg/dL, a TP (9 h) of 5.2 g/dL and a gamma-GTP (9 h) of 0.8 IU/L. For the same compound, the TERMINAL_BW (24 h) was 231.4 g, the APTT (24 h) was 18.2 s and the Bas (24 h) was 0%. For the same compound, the Eos (24 h) was 1%, the Fbg (24 h) was 257.2 mg/dL and the Hb (24 h) was 13 g/dL. It also gave a Ht (24 h) of 38.3%, a Lym (24 h) of 67.4% and an MCH (24 h) of 20.9 pg. The MCHC (24 h) was 34.1%, the MCV (24 h) was 61.4 fL and the Mono (24 h) was 4.4%. For the same compound, the Neu (24 h) was 26.8%, the PT (24 h) was 11.9 s and the Plat (24 h) was 138.1 x10_4/uL. For the same compound, the RBC (24 h) was 625 x10_4/ul, the Ret (24 h) was 6.1% and the WBC (24 h) was 103.6 x10_2/uL. For the same compound, the KIDNEY_L (24 h) was 1 g, the KIDNEY_R (24 h) was 1 g and the KIDNEY_TOTAL (24 h) was 2 g. The LIVER (24 h) was 11.5 g, the A/G (24 h) was 1.4 and the ALP (24 h) was 963.8 IU/L. For the same compound, the ALT (24 h) was 33.6 IU/L, the AST (24 h) was 64 IU/L and the BUN (24 h) was 12.6 mg/dL. The CRE (24 h) was 0.4 mg/dL, the Ca (24 h) was 10.4 mg/dL and the Cl (24 h) was 102.4 meq/L. The DBIL (24 h) was 0.052 mg/dL, the GLC (24 h) was 203.8 mg/dL and the IP (24 h) was 7.6 mg/dL. The K (24 h) was 3.6 meq/L, the LDH (24 h) was 209.8 IU/L and the Na (24 h) was 141 meq/L. It also gave a PL (24 h) of 148 mg/dL, an RALB (24 h) of 3 g/dL and a TBIL (24 h) of 0.1 mg/dL. The TC (24 h) was 81.6 mg/dL, the TG (24 h) was 83 mg/dL and the TP (24 h) was 5.1 g/dL. For the same compound, the gamma-GTP (24 h) was 0.8 IU/L.
